Values after ≈ are worked out from the molar mass of the structure shown.
What was measured:
[1] = system: Candida albicans; assay: Antifungal activity against Candida albicans assessed as inhibition per disc by percent growth inhibition assay; format: functional
[2] = system: Pseudomonas aeruginosa; assay: Antibacterial activity against Pseudomonas aeruginosa by microbroth dilution assay; format: functional
[3] = system: Aspergillus niger; assay: Antifungal activity against Aspergillus niger assessed as inhibition per disc by disc diffusion method; format: functional
[4] = Toxicity in human erythrocytes assessed as hemolysis upto 250 ug/mL; format: cell-based; details: erythrocyte
[5] = system: Staphylococcus aureus; assay: Antibacterial activity against Staphylococcus aureus by microbroth dilution assay; format: functional
[6] = system: Aspergillus niger; assay: Antifungal activity against Aspergillus niger assessed as inhibition per disc by microbroth dilution assay; format: functional
[7] = system: Aspergillus fumigatus; assay: Antifungal activity against Aspergillus fumigatus assessed as inhibition per disc by disc diffusion method; format: functional
[8] = system: Aspergillus fumigatus; assay: Antifungal activity against Aspergillus fumigatus at 5.85 ug/mL; format: functional
[9] = system: Aspergillus flavus; assay: Antifungal activity against Aspergillus flavus assessed as inhibition per disc by percent spore germination inhibition method; format: functional
[10] = system: Aspergillus niger; assay: Antifungal activity against Aspergillus niger assessed as inhibition per disc by percent spore germination inhibition method; format: functional
[11] = system: Aspergillus fumigatus; assay: Antifungal activity against Aspergillus fumigatus assessed as inhibition per disc by microbroth dilution assay; format: functional
[12] = system: Streptococcus pneumoniae; assay: Antibacterial activity against Streptococcus pneumoniae by micro-broth dilution assay; format: functional
[13] = system: Aspergillus flavus; assay: Antifungal activity against Aspergillus flavus assessed as inhibition per disc by disc diffusion method; format: functional
[14] = system: Salmonella typhi; assay: Antibacterial activity against Salmonella typhi by microbroth dilution assay; format: functional, Salmonella enterica subsp. enterica serovar Typhi; details: Salmonella enterica
[15] = system: Aspergillus flavus; assay: Antifungal activity against Aspergillus flavus assessed as inhibition per disc by microbroth dilution assay; format: functional
[16] = system: Aspergillus fumigatus; assay: Antifungal activity against Aspergillus fumigatus assessed as inhibition per disc by percent spore germination inhibition method; format: functional
[17] = system: Salmonella typhi; assay: Antibacterial activity against Salmonella typhi at 31.25 ug/mL; format: functional, Salmonella enterica subsp. enterica serovar Typhi; details: Salmonella enterica
[18] = system: Candida albicans; assay: Antifungal activity against Candida albicans at 31.25 ug/mL; format: functional
[19] = Toxicity in human erythrocytes assessed as hemolysis upto 4000 ug/mL; format: cell-based; details: erythrocyte
[20] = system: Pseudomonas aeruginosa; assay: Antibacterial activity against Pseudomonas aeruginosa at 31.25 ug/mL; format: functional
[21] = Toxicity in human erythrocytes assessed as hemolysis upto 3.91 ug/mL; format: cell-based, Erythrocyte; details: read-out: Activity
[22] = Toxicity in human erythrocytes assessed as hemolysis upto 62.5 ug/mL; format: cell-based, Erythrocyte; details: read-out: Activity
[23] = Toxicity in human erythrocytes assessed as hemolysis upto 1.70 ug/mL; format: cell-based, Erythrocyte; details: read-out: Activity

OC(CCl)CNc1ccccc1Cl (stereo unspecified)
MIC [1]: 250 µg/mL (≈ 1140 µM) | MIC [2]: 62.5 µg/mL (≈ 284 µM) | MIC [3]: 23.43 µg | Activity [4]: Non-toxic | MIC [5]: 500 µg/mL (≈ 2270 µM) | MIC [6]: 62.5 µg/mL | MIC [7]: 11.71 µg | inhibition at 5.85 µg/mL [8]: 90% | MIC [9]: 31.2 µg/mL (≈ 142 µM) | MIC [10]: 62.5 µg/mL (≈ 284 µM) | MIC [11]: 31.2 µg/mL | MIC [12]: 250 µg/mL (≈ 1140 µM) | MIC [13]: 23.43 µg | MIC [14]: 250 µg/mL (≈ 1140 µM) | MIC [15]: 63.5 µg/mL | MIC [16]: 31.2 µg/mL (≈ 142 µM)

OC(CCl)CNc1ccc(Cl)cc1Cl (stereo unspecified)
MIC [1]: 62.5 µg/mL (≈ 246 µM) | MIC [2]: 62.5 µg/mL (≈ 246 µM) | MIC [3]: 93.75 µg | Activity [4]: Non-toxic | MIC [5]: 500 µg/mL (≈ 1960 µM) | MIC [6]: 125 µg/mL | MIC [7]: 23.43 µg | MIC [9]: 62.5 µg/mL (≈ 246 µM) | MIC [10]: 125 µg/mL (≈ 491 µM) | MIC [11]: 62.5 µg/mL | inhibition at 31.25 µg/mL [17]: 90% | MIC [12]: 125 µg/mL (≈ 491 µM) | MIC [13]: 46.87 µg | MIC [14]: 31.3 µg/mL (≈ 123 µM) | MIC [15]: 125 µg/mL | MIC [16]: 62.5 µg/mL (≈ 246 µM)

OC(CCl)CNc1cc(Cl)ccc1Cl (stereo unspecified)
MIC [1]: 62.5 µg/mL (≈ 246 µM) | MIC [2]: 62.5 µg/mL (≈ 246 µM) | MIC [3]: 93.75 µg | Activity [4]: Non-toxic | MIC [5]: 250 µg/mL (≈ 982 µM) | MIC [6]: 125 µg/mL | MIC [7]: 46.87 µg | MIC [9]: 62.5 µg/mL (≈ 246 µM) | MIC [10]: 125 µg/mL (≈ 491 µM) | MIC [11]: 125 µg/mL | MIC [12]: 500 µg/mL (≈ 1960 µM) | MIC [13]: 93.75 µg | MIC [14]: 250 µg/mL (≈ 982 µM) | MIC [15]: 125 µg/mL | MIC [16]: 125 µg/mL (≈ 491 µM)

OC(CCl)CNc1c(Cl)cccc1Cl (stereo unspecified)
MIC [1]: 31.2 µg/mL (≈ 123 µM) | MIC [2]: 125 µg/mL (≈ 491 µM) | MIC [3]: 93.75 µg | Activity [4]: Non-toxic | MIC [5]: 500 µg/mL (≈ 1960 µM) | MIC [6]: 250 µg/mL | inhibition at 31.25 µg/mL [18]: 90% | MIC [7]: 46.87 µg | MIC [9]: 62.5 µg/mL (≈ 246 µM) | MIC [10]: 125 µg/mL (≈ 491 µM) | MIC [11]: 125 µg/mL | MIC [12]: 500 µg/mL (≈ 1960 µM) | MIC [13]: 46.87 µg | MIC [14]: 500 µg/mL (≈ 1960 µM) | MIC [15]: 125 µg/mL | MIC [16]: 125 µg/mL (≈ 491 µM)

OC(CCl)CNc1cccc(Cl)c1 (stereo unspecified)
MIC [1]: 125 µg/mL (≈ 568 µM) | MIC [2]: 250 µg/mL (≈ 1140 µM) | MIC [3]: 46.87 µg | Activity [4]: Non-toxic | MIC [5]: 1000 µg/mL (≈ 4540 µM) | MIC [6]: 62.5 µg/mL | MIC [7]: 23.43 µg | MIC [9]: 62.5 µg/mL (≈ 284 µM) | MIC [10]: 62.5 µg/mL (≈ 284 µM) | MIC [11]: 62.5 µg/mL | MIC [12]: 500 µg/mL (≈ 2270 µM) | MIC [13]: 46.87 µg | MIC [14]: 500 µg/mL (≈ 2270 µM) | MIC [15]: 62.5 µg/mL | MIC [16]: 62.5 µg/mL (≈ 284 µM)

OC(CCl)CNc1ccc(Cl)cc1 (stereo unspecified)
MIC [1]: 62.5 µg/mL (≈ 284 µM) | MIC [2]: 125 µg/mL (≈ 568 µM) | Activity [19]: Non-toxic | MIC [3]: 23.43 µg | Activity [4]: Non-toxic | MIC [5]: 1000 µg/mL (≈ 4540 µM) | MIC [6]: 31.2 µg/mL | MIC [7]: 5.85 µg | inhibition at 5.85 µg/mL [8]: 90% | MIC [9]: 15.6 µg/mL (≈ 71 µM) | MIC [10]: 31.2 µg/mL (≈ 142 µM) | MIC [11]: 15.6 µg/mL | MIC [12]: 500 µg/mL (≈ 2270 µM) | MIC [13]: 11.71 µg | MIC [14]: 62.5 µg/mL (≈ 284 µM) | MIC [15]: 31.2 µg/mL | MIC [16]: 15.6 µg/mL (≈ 71 µM)

OC(CCl)CNc1cccc(Cl)c1Cl (stereo unspecified)
MIC [1]: 62.5 µg/mL (≈ 246 µM) | MIC [2]: 62.5 µg/mL (≈ 246 µM) | MIC [3]: 93.75 µg | Activity [4]: Non-toxic | MIC [5]: 500 µg/mL (≈ 1960 µM) | MIC [6]: 125 µg/mL | MIC [7]: 46.87 µg | MIC [9]: 125 µg/mL (≈ 491 µM) | MIC [10]: 125 µg/mL (≈ 491 µM) | MIC [11]: 125 µg/mL | MIC [12]: 62.5 µg/mL (≈ 246 µM) | MIC [13]: 46.87 µg | MIC [14]: 62.5 µg/mL (≈ 246 µM) | MIC [15]: 125 µg/mL | MIC [16]: 62.5 µg/mL (≈ 246 µM)

OC(CCl)CNc1ccc(Cl)c(Cl)c1 (stereo unspecified)
MIC [1]: 125 µg/mL (≈ 491 µM) | inhibition at 31.25 µg/mL [20]: 90% | MIC [2]: 31.3 µg/mL (≈ 123 µM) | MIC [3]: 46.87 µg | Activity [4]: Non-toxic | MIC [5]: 62.5 µg/mL (≈ 246 µM) | MIC [6]: 62.5 µg/mL | MIC [7]: 11.71 µg | MIC [9]: 31.2 µg/mL (≈ 123 µM) | MIC [10]: 62.5 µg/mL (≈ 246 µM) | MIC [11]: 31.2 µg/mL | MIC [12]: 125 µg/mL (≈ 491 µM) | MIC [13]: 23.43 µg | MIC [14]: 62.5 µg/mL (≈ 246 µM) | MIC [15]: 62.5 µg/mL | MIC [16]: 31.2 µg/mL (≈ 123 µM)

OC(CCl)CNc1cc(Cl)cc(Cl)c1 (stereo unspecified)
MIC [1]: 31.2 µg/mL (≈ 123 µM) | MIC [2]: 62.5 µg/mL (≈ 246 µM) | MIC [3]: 93.75 µg | Activity [4]: Non-toxic | MIC [5]: 125 µg/mL (≈ 491 µM) | MIC [6]: 250 µg/mL | inhibition at 31.25 µg/mL [18]: 90% | MIC [7]: 46.87 µg | MIC [9]: 125 µg/mL (≈ 491 µM) | MIC [10]: 250 µg/mL (≈ 982 µM) | MIC [11]: 125 µg/mL | inhibition at 31.25 µg/mL [17]: 90% | MIC [12]: 250 µg/mL (≈ 982 µM) | MIC [13]: 46.87 µg | MIC [14]: 31.3 µg/mL (≈ 123 µM) | MIC [15]: 125 µg/mL | MIC [16]: 125 µg/mL (≈ 491 µM)

C[C@@H]1[C@H](O)[C@@H](C)/C=C/C=C/C=C/C=C/C=C/C=C/C=C/[C@H](O[C@@H]2O[C@H](C)[C@@H](O)[C@H](N)[C@@H]2O)C[C@@H]2O[C@](O)(C[C@@H](O)C[C@@H](O)[C@H](O)CC[C@@H](O)C[C@@H](O)CC(=O)O[C@H]1C)C[C@H](O)[C@H]2C(=O)O (stereo in doubt) [AMPHOTERICIN B]
MIC [3]: 0.73 µg | MIC [6]: 1.95 µg/mL | MIC [7]: 0.73 µg | hemolysis at 3.91 ug/mL [21]: 5.52% | MIC [9]: 1.95 µg/mL (≈ 2.11 µM) | MIC [10]: 1.95 µg/mL (≈ 2.11 µM) | hemolysis at 62.5 ug/mL [22]: 100% | hemolysis at 1.7 ug/mL [23]: 50% | MIC [11]: 1.95 µg/mL | MIC [13]: 0.73 µg | MIC [15]: 1.95 µg/mL | MIC [16]: 1.95 µg/mL (≈ 2.11 µM)

CN(C)[C@@H]1C(O)=C(C(N)=O)C(=O)[C@@]2(O)C(O)=C3C(=O)c4c(O)cccc4[C@@](C)(O)[C@H]3C[C@@H]12 [TETRACYCLINE]
MIC [2]: 7.9 µg/mL (≈ 17.8 µM) | MIC [5]: 7.9 µg/mL (≈ 17.8 µM) | hemolysis at 3.91 ug/mL [21]: 4.26% | hemolysis at 62.5 ug/mL [22]: 11.7% | MIC [12]: 7.9 µg/mL (≈ 17.8 µM) | MIC [14]: 15.6 µg/mL (≈ 35.1 µM)

Reference: ChEMBL document CHEMBL1141569, “Synthesis and antimicrobial activity of 3-arylamino-1-chloropropan-2-ols” (Bioorg Med Chem Lett, 2008)
